# From US6187787A, “Bis(9-aminoacridine) DNA intercalating agents having antitumor activity” (Trustees of Dartmouth College, priority 2000, dated 2001)
# Like-named read-outs stand apart in the source and are kept apart here.
# What was measured:
# [1] = test system: L1210 murine leukemia cells; assay: Cytotoxicity in the murine leukemia cell line L1210 (growth inhibition, 72 hours); format: cell-based; settings: Mus musculus
# Description: Using the methodologies disclosed by Jaycox et al. J. Heterocyclic. […] A number of intercalating agents currently in clinical use for treatment of cancer were also evaluated in this assay for comparison.
# L1210 murine leukemia cells were routinely maintained as suspension cultures in McCoy's 5A medium supplemented with 10% horse serum, glutamine, penicillin, and streptomycin and grown in a humidified environment of 10% carbon dioxide and 90% air at 37° C. Compounds were dissolved in dimethyl sulfoxide (DMSO) and 40 μg was added to 4 ml of L1210 cells (10^5 cells/tube) to attain final drug concentrations of 0.01, 0.1 and 10 μg/ml of culture. After 72 hours of continuous exposure to the drug, the cell concentration was determined by a Coulter counter (Model ZBF, Hialeah, Fla.). Growth inhibition was calculated for each drug concentration using the following formula:
# % growth inhibition=(1-A)×100, wherein A=[cell # treated/cell # in
# The growth inhibition data were then used to calculate the ID50 value (the calculated drug concentration required to inhibit cell growth by 50% of control).
# DNA = DNA binding characteristics of acridine dimers, Le Pecq et al. 1975; cited from earlier work
# calf thymus DNA = assay: Thermal denaturation studies on calf thymus DNA; format: binding; settings: increase of denaturation temperature
# Description: Thermal denaturation studies were performed on calf thymus DNA. Addition of the compounds of the present invention to the calf thymus DNA caused the denaturation temperature to increase approximately 11° C. (see Table 1).
# [2] = L1210 murine leukemia, 72 hours of continuous exposure, concentration which inhibits growth of 50% of the cells, read-out: ID50 (the source's name)
Structure (SMILES),"IC50 [1, 2] [µM]",also measured
Nc1c2ccccc2nc2ccccc12 [9-aminoacridine],2.3,
"Cc1cc2cccnc2c2ncccc12 [5-methyl-1,10-phenanthroline, reference compound]",2,
COc1ccc2nc3cc(Cl)ccc3c(NCCCCNCCCNc3c4ccc(Cl)cc4nc4ccc(OC)cc34)c2c1 [IIB],,mode of intercalation (bis- or monofunctional) (DNA): bisintercalated
c1ccc2c(N[C@H]3CC[C@H](C[C@H]4CC[C@H](Nc5c6ccccc6nc6ccccc56)CC4)CC3)c3ccccc3nc2c1,0.5,
"CC[n+]1c(-c2ccccc2)c2cc(N)ccc2c2ccc(N)cc21 [ethidium bromide, reference compound]",,"IC50 ([1]; L1210, 72 h, read-out: ID50): 4.1 µM"
c1ccc2c(NC3CCC(CC4CCC(Nc5c6ccccc6nc6ccccc56)CC4)CC3)c3ccccc3nc2c1 (centres unmarked),,ΔTm (calf thymus DNA): 25.9 ± 4.1 °C
"Cn1cc(NC(=O)c2cc(NC(=O)c3cc(NC=O)cn3C)cn2C)cc1C(=O)NCCC(=N)N [distamycin-A, reference compound]",,"IC50 ([1]; L1210, 72 h, read-out: ID50): 6 µM"
COc1ccc2nc3cc(Cl)ccc3c(NCCCNCCCCNCCCNc3c4ccc(Cl)cc4nc4ccc(OC)cc34)c2c1 [IIA],,mode of intercalation (bis- or monofunctional) (DNA): bisintercalated
c1ccc2c(N[C@H]3CC[C@@H](C[C@H]4CC[C@@H](Nc5c6ccccc6nc6ccccc56)CC4)CC3)c3ccccc3nc2c1,0.44,
c1cc(Nc2c3ccccc3nc3ccccc23)cc(Oc2cccc(Oc3cccc(Nc4c5ccccc5nc5ccccc45)c3)c2)c1,5.9,
COc1ccc2nc3cc(Cl)ccc3c(NCCCNCCCNc3c4ccc(Cl)cc4nc4ccc(OC)cc34)c2c1 [III],,mode of intercalation (bis- or monofunctional) (DNA): only one of the two rings of the dimer with the shortest chain (III) of 9 angstroms was intercalated
CC(C)(c1ccc(Oc2ccc(Nc3c4ccccc4nc4ccccc34)cc2)cc1)c1ccc(Oc2ccc(Nc3c4ccccc4nc4ccccc34)cc2)cc1,5.4,ΔTm (calf thymus DNA): 11.6 ± 0.4 °C
"Cc1c2ccncc2c(C)c2c1[nH]c1ccccc12 [ellipticine, reference compound]",0.53,
c1ccc2c(N[C@H]3CC[C@@H](C[C@H]4CC[C@H](Nc5c6ccccc6nc6ccccc56)CC4)CC3)c3ccccc3nc2c1,0.56,
CC(C)(c1ccc(Nc2c3ccccc3nc3ccccc23)cc1)c1ccc(C(C)(C)c2ccc(Nc3c4ccccc4nc4ccccc34)cc2)cc1,> 13,ΔTm (calf thymus DNA): 10.9 ± 0.31 °C
